The values that follow come from article PMC9090717, “Fullerenemalonates inhibit amyloid beta aggregation, in vitro and in silico evaluation” (RSC Advances, 2018).

Data set [1] relates to SH-SY5Y neuroblastoma cells. Conditions: human, 24 h, 13 μM.
Experimental: (§1) The neuroblastoma cell lines SH-SY5Y (ATCC) were grown in 25 cm^2 flasks at 37 °C with 5% CO2 in advanced DMEM/F-12 medium (Sigma-Aldrich), supplemented with 10% fetal bovine serum (Invitrogen); for cytotoxicity assay, cells were seeded at a density of 1 × 10^4 in triplicate per sample in a 96 well microplate 24 h before the treatment. The fullerenemalonates were incubated for 24 h at the corresponding concentration for their ability to inhibit Aβ42 aggregation, 13 μM. Likewise, the vehicles of each fullerenemalonate other than water (acetonitrile and ethanol) were assessed to validate its toxicity. The cell viability assay was evaluated using Thiazolyl Blue Tetrazolium Bromide (MTT, Sigma-Aldrich); based on the conversion of MTT to water-insoluble MTT-formazan of dark blue color by the mitochondrial dehydrogenases of living cells. The absorbance of formazan was measured at a wavelength of 570 nm in a plate reader, iMark Biorad. For a cytotoxic concentration (CC50) the fullerenemalonates were incubated at different concentrations followed by a cell viability assay. The CC50 was determined from the curves obtained by fitting the average absorbance values in three independent experiments in the 10–80 μM fullerenemalonate concentration range.
The subject of a further data set is Aβ42. To be noted: cited from earlier work.
Details of data set [2]: method as in PMID 16853553. To be noted: aqueous solution; cited from earlier work.
Data set [3] relates to SH-SY5Y neuroblastoma cells. As to the kind of experiment: MTT cell viability assay. To be noted: 13 μM, 24 h, normalized to control. On the technique in general: Formazan colour is commonly taken as a measure of viable cells.
Experimental: as §1

Several values for one entry are separate records, joined by “and”; a condition that tells them apart may be missing. Identical values can stand only once. Like-named read-outs stand apart in the source and are kept apart here.

As for `CCOC(=O)C1(C(=O)OCC)C23c4c5c6c7c8c4-c4c2c2c9c%10c%11c%12c(c-5c5c%13c%14c%15c%16c%17c(c-7c7c%18c%19c%20c%21c(c4C%204C(C(=O)OCC)(C(=O)OCC)C874)c2c2c9c4c%11c7c(c%13%12)c%14c8c%16c9c(c%18%17)c%19c%11c%21c2c2c4c7c8c9c%112)C%152C(C(=O)OCC)(C(=O)OCC)C652)C%1013` (stereo not drawn) [C3-C63(COOEt)6], the “Cell survival rate (%)” value in data set [1] turned out to be 78.59 ± 0.22%.
As to sodium fullerenolate, the “Anti-amyloid activity in Aβ42” value with Aβ42 is given as “strong anti-amyloid activity”.
One may read the IC50 as the concentration needed to halve the response being measured. Turning to 1,2-(dimethoxymethano) fullerene, the IC50 with Aβ42 (Aβ42 concentration 20 μM, read-out: IC50, inhibition of Aβ peptide aggregation) was around 9 µM.
`CCOC(=O)C1(C(=O)OCC)C23c4c5c6c7c8c9c(c%10c%11c2c2c4c4c%12c5c5c6c6c8c8c%13c9c9c%10c%10c%11c%11c2c2c4c4c%12c%12c5c5c6c8c6c8c%13c9c9c%10c%10c%11c2c2c4c4c%12c5c6c5c8c9c%10c2c45)C713` [C61(COOEt)2]: the “Cell survival rate (%)” value in data set [1] is on record as 65.65 ± 0.29%.
`O=C([O-])C1(C(=O)[O-])C23c4c5c6c7c8c9c(c%10c%11c2c2c4c4c%12c5c5c6c6c8c8c%13c9c9c%10c%10c%11c%11c2c2c4c4c%12c%12c5c5c6c8c6c8c%13c9c9c%10c%10c%11c2c2c4c4c%12c5c6c5c8c9c%10c2c45)C713.[Na+].[Na+]` [C61(COONa)2]: the “Average hydrodynamic radius Rh of self-assembled particles” value in data set [2] is given as “≈ 32 nm”. Besides, in data set [3], the “Cell survival rate (%)” value is 64% and 64.34 ± 0.30%.
